US10526646B2, “Chromogenic peroxidase substrates” (Dako Denmark A/S, priority 2015, dated 2020)
In brackets after ≈: the same amount, converted by molar mass.

Tests used:
[1] = UV-VIS absorbance maxima of chromogenic conjugates and mixtures; assay type: physicochemical
Method: “Spectrally narrow” refers to a chromogen having less that 50 nm broadness at its maximum absorbance at half peak height by UV-VIS spectroscopy, measured in +99% water at pH, 6-8 in 10 μM concentration. A “magenta chromogen” is a spectrally narrow chromogen with peak absorbance between 525 and 530 nm, measured in +99% water at pH, 6.0-8.0 in 10 μM concentration. A “greenish-yellow chromogen” is a chromogen with peak absorbance below 475 nm and less than 10% absorbance at 530 nm or above relative to the peak absorbance, measured in +99% water at pH, 6.0-8.0 in 10 μM concentration. A “yellow chromogen” is a chromogen with peak absorbance below 505 nm and less than 10% absorbance at 530 nm or above relative to the peak absorbance, measured in +99% water at pH, 6.0-8.0 in 10 μM concentration. A “cyan chromogen” is a chromogen having maximal absorbance above 615 nm and less than 10% relative absorbance at any wavelength between 530 and 400 nm relative to the peak absorbance, measured in +99% water at pH, 6.0-8.0 m 10 μM concentration. An “orange chromogen” is a “spectrally narrow” chromogen that has maximum absorbance between 495 and 520 nm, measured in +99% water at pH, 6-8 in 10 μM concentration. A “dichroic chromogen” is a chromogen that has at least two absorbance maxima, separated by a local minimum at least 50 nm wide and one further global minimum between 390 and 700 nm measured in water between pH 6 and 8.

HRP [2] = target: T1, HRP (Armoracia rusticana, UniProt P00433); experiment: IHC staining of FFPE human tissues and Her2 control cell lines, Envision+ Dual link HRP visualization, DAB as reference; design: species or system horse radish; conditions: for IHC staining performance of Rhodamine 6G derivatives with different 4-hydroxy cinnamic acid derivatives: peroxidase substrate moiety varied; for colour of IHC stain / stain intensity and crispness compared with DAB: tested in 0.4 to 1 mM; for stain intensity and crispness compared with DAB: low and medium expression targets
T1 construct: purchased Dako K4061
T1 sequence (P00433 31-338): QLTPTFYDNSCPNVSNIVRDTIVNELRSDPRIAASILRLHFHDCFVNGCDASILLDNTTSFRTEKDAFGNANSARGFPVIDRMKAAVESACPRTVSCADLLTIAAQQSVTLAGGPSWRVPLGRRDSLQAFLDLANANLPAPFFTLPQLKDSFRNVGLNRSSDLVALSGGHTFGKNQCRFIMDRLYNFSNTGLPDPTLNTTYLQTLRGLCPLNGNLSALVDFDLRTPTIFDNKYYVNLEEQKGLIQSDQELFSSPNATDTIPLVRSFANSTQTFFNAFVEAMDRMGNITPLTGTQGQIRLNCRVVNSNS

[3] = Solubility in substrate buffer as function of percentage of NMP; assay type: physicochemical
Method: Only Compound 6 having a piperazine amide stands out by absorbing at 536 nm, around 5 nm above the esters comprising Compounds 2, 13, 14 and 15 all with abs max within 531-533 nm. […] Addition of NMP to the buffer in all cases increased chromogen solubility. See result table below of the solubility of 2, 13 and 15 as function of percentage of NMP as organic co solvent, 0% representing neat aqueous buffer 50 mM imidazole: HCl, pH 6.8, 3% and 10% said percent.

HRP [4] = target: T1, HRP; experiment: Triple immunohistochemical staining (Ki67, CD20, Her2) on Dako Autostainer; design: species or system horse radish; conditions: 0.5 mM conjugate, 50 mM imidazole:HCl pH 6.8, 0.003% hydrogen peroxide, 2.5% NMP, 5 min
Method: The exemplary triple staining method employed DAB in combination with Compounds 2 and 8, on a Dako Autostainer at room temperature. The steps of the method included: • 1. Blocking of endogenous peroxidase with peroxidase block (Dako S2023), 5 min. • 2. antiKi67 RTU antibody (Dako IR626), 20 mm • 3. Envision+dual Link HRP (Dako K4061), 20 min • 4. DAB (Dako K3468) 5 min. • 5. HRP quenching with peroxidase block (Dako S2023) with addition of 5 mg/mL alphacyano cinnamic acid, 5 min. • 6. antiCD20cy RTU antibody (Dako IR604), 20 min • 7. Envision+dual Link HRP (Dako K4061), 20 min • 8. 0.5 mM compound 2 in 50 mM imidazole: HCl pH 6.8, 0.003% hydrogen peroxide and 2.5% NMP, 5 min. • 9. HRP quenching with peroxidase block (Dako S2023) with addition of 5 mg/mL alphacyano cinnamic acid, 5 min. • 10. antiHer2 (Dako vial ST301 from HercepTest kit SK001) 20 min. • 11. Envision+dual Link HRP (Dako K4061), 20 min • 12. 0.5 mM compound 8 in 50 mM imidazole: HCl pH 6.8, 0.003% hydrogen peroxide and 2.5% NMP, 5 min. • 13. Counter stain with haematoxylin (Dako S3301)

HRP [5] = target: T1, HRP; experiment: Tissue staining with mixtures of chromogens in chromogen buffer; design: species or system horse radish; conditions: alone
[6] = imidazole:HCl buffer (substrate buffer) with 3% NMP, aqueous buffer, 3% NMP in 50 mM imidazole:HCl pH 6.8
[7] = imidazole:HCl buffer (substrate buffer) with 10% NMP, aqueous with cosolvent or surfactant or cyclodextrin, 10% NMP in 50 mM imidazole:HCl pH 6.8
[8] = imidazole:HCl buffer (substrate buffer), 0% NMP, neat aqueous buffer 50 mM imidazole:HCl pH 6.8

Row | SMILES | Absp nm (max) [1] [nm] | colour of IHC stain (HRP [2]) | stain intensity and crispness compared with DAB (HRP [2]) | further results
1 | CN(C)c1ccc2c(-c3ccccc3C(=O)N3CCN(CC(=O)NCCOCCOCCNC(=O)/C=C/c4ccc(O)cc4)CC3)c3ccc(=[N+](C)C)cc-3oc2c1 [Compound 7, TM-Rhodamine-Pip-L12-Cou] | 561 | – | – | –
2 | CC/N=c1\cc2oc3cc(NCC)c(C)cc3c(-c3ccccc3C(=O)N3CCN(C(=O)c4ccccc4-c4c5ccc(=O)cc-5oc5cc(OCC(=O)NCCOCCOCCNC(=O)OC(C)(C)C)ccc45)CC3)c-2cc1C [Formula XIVb] | – | – | – | colour of the compound as chromogen [1]: orange-red color
3 | CC/N=c1\cc2oc3cc(NCC)c(C)cc3c(-c3ccccc3C(=O)OCC(=O)NCCOCCOCCNC(=O)/C=C/c3ccc(O)c(OC)c3)c-2cc1C [Compound 18, Rhodamine 6G-12-Fer] | 531 | – | – | IHC staining performance of Rhodamine 6G derivatives with different 4-hydroxy cinnamic acid derivatives (HRP [2]): performed acceptably
4 | CCN(CC)c1ccc2c(-c3ccccc3C(=O)OCC(=O)NCCOCCOCCNC(=O)/C=C/c3ccc(O)cc3)c3ccc(=[N+](CC)CC)cc-3oc2c1 [Compound 4, RhodamineB-L12-Cou] | 561 | purple stains | matched DAB in intensity and crispness | –
5 | CNCCNC [Compound 34A, N,N′-dimethyl ethylenediamine] | – | – | – | absorbance of Rhodamine 6G secondary amide / ester derivatives [1]: 531 nm
6 | CC/N=c1\cc2oc3cc(NCC)c(C)cc3c(-c3ccccc3C(=O)N3CCN(C(=O)c4ccc(-c5c6ccc(=O)cc-6oc6cc(O)ccc56)c(C(=O)O)c4)CC3)c-2cc1C [6G compound] | – | – | – | colour of the compound as chromogen [1]: orange
7 | CN(C)c1ccc2c(-c3ccccc3C(=O)OCC(=O)NCCOCCOCCNC(=O)/C=C/c3ccc(O)cc3)c3ccc(=[N+](C)C)cc-3oc2c1 [Compound 3, TetramethylRhodamine-L12-Cou] | 556 | slightly redish purple stains | more than matched DAB in intensity and crispness | –
8 | CC/N=c1\cc2oc3cc(NCC)c(C)cc3c(-c3ccccc3C(=O)OCC(=O)NCCNC(=O)/C=C/c3ccc(O)cc3)c-2cc1C [Compound 13, Rho6G-L6-Cou] | 532 | red stains | matched DAB in intensity and crispness | solubility [3, 6]: 900 µM (≈ 595 µg/mL); solubility [3, 7]: 1800 µM (≈ 1190 µg/mL); solubility [3, 8]: 500 µM (≈ 330 µg/mL); solubility in the substrate buffer relative to Compound 2 [3]: reduced solubility
9 | O=C(/C=C/c1ccc(O)cc1)NCCOCCOCCNC(=O)COC(=O)c1ccccc1-c1c2cc(Cl)c(=O)cc-2oc2cc(O)c(Cl)cc12 [Compound 11, 2,7Dichloro-Flu-L12-Cou] | 517 | – | – | –
10 | O=C(/C=C/c1ccc(O)cc1)NCCOCCOCCNC(=O)COC(=O)c1ccccc1C1=c2cc3c4c(c2Oc2c1cc1c5c2CCCN5CCC1)CCC[N+]=4CCC3 [Compound 5, Rhodamine101-L12-Cou] | 584 | – | – | –
11 | Nc1ccc(-c2ccc(N)c(N)c2)cc1N [DAB, 3,3′-diaminobenzidine, reference compound] | – | – | – | staining in the high expression range (HRP [2]; very high expression targets, trained observers): tended to over-stain and blackout morphological details; stain produced in triple staining (HRP [4]): brown ki67 nuclear stain
12 | CC/N=c1\cc2oc3cc(NCC)c(C)cc3c(-c3ccccc3C(=O)OCC(=O)NCCOCCOCCNC(=O)COCC(=O)NCCOCCOCCNC(=O)/C=C/c3ccc(O)cc3)c-2cc1C [Compound 15, Rho6G-L27-Cou] | 533 | deep blue stains | more than matched DAB in intensity and crispness | solubility [3, 6]: 1900 µM (≈ 1890 µg/mL); solubility [3, 7]: 6000 to 7000 µM (≈ 5970 to 6970 µg/mL); solubility [3, 8]: 1700 µM (≈ 1690 µg/mL); solubility in the substrate buffer relative to Compound 2 [3]: significantly increased solubility
13 | O=C(/C=C/c1ccc(O)cc1)NCCOCCOCCNC(=O)COC(=O)c1ccccc1-c1c2ccc(=O)cc-2oc2cc(O)ccc12 [Compound 10, Flu-L12-Cou] | 503 | – | – | colour of stain of compound alone (HRP [5]): brownish hue
14 | O=C(/C=C/c1ccc(O)cc1)NCCOCCOCCNC(=O)CN1CCN(C(=O)c2ccccc2-c2c3ccc(=O)cc-3oc3cc(O)ccc23)CC1 [Compound 12, Flu-Pip-L12-Cou] | 508 | – | – | –
15 | CC/N=c1\cc2oc3cc(NCC)c(C)cc3c(-c3ccccc3C(=O)OCC(=O)NCCOCCOCCNC(=O)/C=C/c3ccc(O)cc3O)c-2cc1C [Compound 17, Rhodamine 6G-L12-2,4-OH-Cin] | 531 | – | – | IHC staining performance of Rhodamine 6G derivatives with different 4-hydroxy cinnamic acid derivatives (HRP [2]): strong stains but also some background
16 | CC/N=c1\cc2oc3cc(NCC)c(C)cc3c(-c3ccccc3C(=O)N3CCN(CC(=O)NCCOCCOCCNC(=O)/C=C/c4ccc(O)cc4)CC3)c-2cc1C [Compound 6, Rhodamine 6G-Pip-L12-Cou] | 536 | slightly purplish red stains | matched DAB in intensity and crispness | solubility in the substrate buffer relative to Compound 2 [3]: significantly increased solubility
17 | N=c1ccc2c(-c3ccccc3C(=O)OCC(=O)NCCOCCOCCNC(=O)/C=C/c3ccc(O)cc3)c3ccc(N)cc3oc-2c1 [Compound 1, Rhodamine 110-L12-Cou] | 505 | – | – | –
18 | CC/N=c1\cc2oc3cc(NCC)c(C)cc3c(-c3ccccc3C(=O)OCC(=O)NCCOCCOCCNC(=O)/C=C/c3ccc(O)c(O)c3)c-2cc1C [Compound 16, Rhodamine 6G-L12-Caf] | 531 | – | – | IHC staining performance of Rhodamine 6G derivatives with different 4-hydroxy cinnamic acid derivatives (HRP [2]): performed poorly
19 | CCN(CC)c1ccc(C(=C2C=CC(=[N+](CC)CC)C=C2)c2cc(OCC(=O)NCCOCCOCCNC(=O)/C=C/c3ccc(O)cc3)c(S(=O)(=O)O)cc2S(=O)(=O)O)cc1 [Compound 35] | – | – | – | absorbance maximum ([1]; in neutral water): 640 nm
20 | O=C(O)COc1ccc2c(-c3ccccc3C(=O)OCC(=O)NCCOCCOCCNC(=O)/C=C/c3ccc(O)cc3)c3ccc(=O)cc-3oc2c1 [Compound 9, (O-carboxymethyl)-Flu-L12-Cou] | 458 | slightly greenish yellow stains | almost matched DAB in intensity | colour of stain of compound alone (HRP [5]): unpleasing greenish yellow
21 | CC/N=c1\cc2oc3cc(NCC)c(C)cc3c(-c3ccccc3C(=O)OCC(=O)NCCOCCOCCNC(=O)/C=C/c3cc(OC)c(O)c(OC)c3)c-2cc1C [Compound 19, Rhodamine 6G-L12-Sin] | 531 | – | – | IHC staining performance of Rhodamine 6G derivatives with different 4-hydroxy cinnamic acid derivatives (HRP [2]): performed poorly
22 | CC/N=c1\cc2oc3cc(NCC)c(C)cc3c(-c3ccccc3C(=O)OCCN3CCN(CC(=O)NCCOCCOCCNC(=O)/C=C/c4ccc(O)cc4)CC3)c-2cc1C [Compound 14, Rhodamine 6G-Et-Pip-L12-Cou] | 531 | red stains | matched DAB in intensity and crispness | solubility in the substrate buffer relative to Compound 2 [3]: significantly increased solubility
